Numbers after ± are expanded uncertainties.
How the values were obtained:
[1] = refractive index (Na D-line) (dimensionless); settings: 101.33 kPa, Liquid, Standard Abbe refractometry
[2] = Liquid; for mass density: 293.15 K, 101.33 kPa

Cc1cccc(O)c1 [3-methylphenol]
refractive index ([1]; 293.15 K): 1.5414 ± 0.0007
mass density [2]: 1034 ± 1.5 kg/m3
vapor or sublimation pressure ([2]; 473.35 K): 95.1 ± 3 kPa

Cc1ccc(O)cc1 [4-methylphenol]
refractive index ([1]; 298.15 K): 1.5391 ± 0.0007
vapor or sublimation pressure ([2]; 475.35 K): 95.1 ± 3 kPa

Cc1ccccc1C [1,2-dimethylbenzene]
refractive index ([1]; 293.15 K): 1.5055 ± 0.0007
mass density [2]: 880.1 ± 1.3 kg/m3
vapor or sublimation pressure ([2]; 415.35 K): 95.1 ± 3 kPa

Cc1ccc(C)cc1 [1,4-dimethylbenzene]
refractive index ([1]; 293.15 K): 1.4858 ± 0.0007
mass density [2]: 861 ± 1.2 kg/m3
vapor or sublimation pressure ([2]; 408.65 K): 95.1 ± 3 kPa

Cc1cccc(C)c1 [1,3-dimethylbenzene]
refractive index ([1]; 293.15 K): 1.4972 ± 0.0007
mass density [2]: 864.4 ± 1.2 kg/m3
vapor or sublimation pressure ([2]; 410.25 K): 95.1 ± 3 kPa

Cc1ccccc1O [2-methylphenol]
refractive index ([1]; 293.15 K): 1.5468 ± 0.0007
mass density [2]: 1046 ± 1.6 kg/m3
vapor or sublimation pressure ([2]; 463.65 K): 95.1 ± 3 kPa

CN(C)C=O [dimethylformamide]
refractive index ([1]; 293.15 K): 1.4305 ± 0.0007
mass density [2]: 948.7 ± 1.4 kg/m3
vapor or sublimation pressure ([2]; 420.95 K): 95.1 ± 3 kPa
